# Results published in patent US8399440B2, “Disease modifying anti-arthritic activity of 2-methoxyestradiol” (EntreMed, Inc., priority 2006, dated 2013).
# What was measured:
# [1] = test system: PMNL migration to dermal inflammatory reactions; assay: 51Cr-labeled PMNL migration to dermal inflammatory reactions; assay type: in vivo, Rat (Lewis)
# Description: Rat blood PMNL were isolated from a donor arthritic rat by hydroxyethyl starch (Hespan; Dupont Merck, Wilmington, Del.) exchange transfusion performed through a needle inserted in a femoral vein. The exchanged blood was collected into heparin and acid-citrate-dextrose (ACD, formula A; Fenwal-Travenol, Malton, ON) and the leukocyte-rich plasma was harvested during 1 g sedimentation of red blood cells. The PMNL were then isolated by centrifugation on discontinuous Percoll density gradients of 63% Percoll above 74% Percoll with 10% autologous plasma and calcium and magnesium-free Tyrode's solution (TyS^-/-) for the balance of the suspending medium. […] After the cells were washed, they were injected i.v. into rats at a dose of 10^7 51Cr-labeled PMNL per animal bearing approximately 1-2×10^5 cpm. These cells were allowed to circulate and migrate for 2 h prior to sacrifice of the rats. […] List Biologicals, Campbell, Calif.) or zymosan-activated serum (rat) as a source of […].^22 2 h before sacrifice, administered in the doses indicated at the same time as the i.v. injection of radiolabeled PMNL. The accumulation of PMNL in these sites was quantified by biopsy of the injection sites using a 12-mm punch biopsy taken following sacrifice of the animals. At the time the rats were killed, cardiac blood was obtained to measure the blood leukocyte count and the leukocyte and plasma associated radioactivity. Joints were dissected and segments of limbs sectioned to include carpal, metacarpal, […] metatarsal joints for analysis as previously reported (Issekutz et al. Lab Invest. (1991), 64:656-63 and Issekutz et al. Arthritis Rheum. (2001), 44:1428-37). The content of ^51Cr in the joints, as well as in dermal skin sites and internal organs, was determined with a Wallac LKB 1280 gamma counter (Fisher Scientific, Nepean, ON). Accumulated isotope in the tissue was expressed as cpm/10^6 cpm injected i.v. In the same rats, the migration of PMNL to dermal inflammatory reactions was measured, these reactions being initiated at the time of radiolabeled PMNL injection. Thus the migration quantitated the acute reaction during the first two hours of the lesions.
# [2] = test system: lymph node cells from rats with AA; assay: Lymph node cell proliferation in vitro (3H-thymidine incorporation)
# Method: (§1) Because of the effect of 2ME2 treatment on arthritis severity and the response in the spleen during AA, the T lymphocyte reactivity to mitogens the Mycobacterial purified protein derivative (PPD) antigen was evaluated. […] The effect of various concentrations of 2ME2 in vitro on this proliferative response was evaluated. […] To further assess the effect of 2ME2 on lymphocyte responsiveness, lymph node cells harvested from rats treated with 2ME2 (30 mg/kg/d) from day 6-14 post-immunization were tested for proliferative response to PPD and the mitogens, Con A and PHA and compared to lymphocytes from vehicle-treated animals.
# [3] = test system: Arthrogen Collagen MAb-Induced Arthritis; assay: Arthrogen collagen MAb-induced arthritis (Arthrogen-CIA model of RA); assay type: in vivo, Mouse (Balb/C)
# [4] = test system: spleen; assay: Splenomegaly and spleen histology in adjuvant arthritis; assay type: in vivo, Rat (Lewis)
# Method: During the course of AA in the rat, splenomegaly is a prominent feature due to splenitis, lymphoid hyperplasia and even abscess formation. Therefore the splenic enlargement in these animals was monitored for any effect of 2ME2 on this parameter. In rats that were treated with vehicle, spleen weights increased dramatically, increasing nearly three-fold.
# A histological examination of the spleens was undertaken in the different groups. The appearance of a normal rat spleen (A) and vehicle-treated spleen (B).
# [5] = test system: lymph node cells; assay: Ex vivo proliferation of lymph node cells from treated rats
# Method: as §1
# [6] = test system: synovial microvessels; assay: Synovial vascularity by laminin immunostaining; assay type: in vivo, Rat (Lewis); settings: between the various treatment groups and vehicle, any vessel size
# Method: Tissue samples, including joints, were fixed in 10% phosphate-buffered formalin or AFA fixative ([…], 2% formalin, 5% glacial acetic acid, 20% water), the latter for immunostaining. Samples were then decalcified in formic or acetic acid and paraffin embedded. Sections (5 μm) were stained with hematoxylin-eosin (H&E) using routine techniques. To stain cartilage proteoglycan, separate sections were stained with safranin O (Difco, Detroit, Mich.) for 1 min. as described previously (Issekutz, (2001). To assess microvessel density in the synovium, rabbit anti-mouse laminin polyclonal IgG antibody (Cedarlane Laboratories Limited, Homby, ON) was used to outline vessels, with detection using biotinylated goat anti-rabbit IgG antibody and avidin-biotin complexed with HRPO according to manufacturer's recommendations (Vectastain Elite ABC kit; Vector Laboratories Canada Inc., Burlington, ON).
# To assess synovial vascularity and angiogenesis, sections were immunostained for laminin to reliably delineate microvessels as well as medium-sized vessels. […] The other commonly used endothelial cell marker, CD31, was also evaluated on the synovial tissue. […] This vascularity was quantitated in synovia from rats treated with the various protocols and compared to vehicle-treated animals. […] Only vessels that were in cross-section were scored. […]
smiles,measurement,setting,value
"COc1cc2c(cc1O)CC[C@@H]1[C@@H]2CC[C@]2(C)[C@@H](O)CC[C@@H]12 [2ME2, 2-methoxyestradiol]",PMNL migration to E. coli LPS,"[1]; dermal sites, 2 h migration",did not affect
same,PMNL migration to complement chemotactic factor C5ades-arg,"[1]; dermal sites, 2 h migration",did not affect
same,inhibition of PMNL migration to sites injected with rat TNF-α,"[1]; either dose tested (30 or 100 mg/kg/d), starting at day 6 post-immunization",approximately 50%
same,inhibition of PMNL migration to sites injected with rat TNF-α,"[1]; treatment delayed to day 10, tendency for inhibition",did not reach significance
same,"IC50, lymphocyte response to PPD","[2]; 2ME2 added on day of culture initiation, 6 days",about 0.3 μg/mL
same,viability,[2]; all cultures,≥ 85 % live cells
same,spontaneous proliferation in unstimulated cultures,[2]; in vitro,decreased
same,"proliferation induced by the mitogens (Con A, PHA)","[2]; in vitro, compared with effect on PPD response",comparable inhibitory effect
same,effect on viability,[2]; lymph node cell cultures,no effect on viability
same,arthritic score,[3]; FIG. 1,decreases
same,synovial inflammation,"[3]; FIG. 2, 100 mg/kg versus control",inhibits
same,periarticular inflammatory infiltrate and fibrosis,"[3]; FIG. 3, 100 mg/kg versus control",inhibition
same,loss of proteoglycan in articular cartilage and induction of osteoclast activity,"[3]; FIG. 4, 100 mg/kg versus control",prevents
same,severity of RA progression,[3]; FIG. 5,inhibit
same,percent inhibition of arthritic score,"[3]; FIG. 7, 2ME2 in combination with methotrexate",unexpected increase
same,radiographic assessment,[3]; FIG. 8,radiographic evidence of 2ME2's anti-rheumatic effect
same,"inhibition of clinical arthritic score, inflammation, cartilage degradation, bone resorption, and pannus formation","[3]; Study SMP04-040, 1, 10, 100 mg/kg/d PO, prevention (start 1 day after induction), Panzem NCD formulation",Dose-dependent
same,"inhibition of clinical arthritic score, inflammation, cartilage degradation, bone resorption, and pannus formation","[3]; Study SMP05-009, 100 mg/kg/d, 100 mg/kg/week, 100 mg/kg twice a week PO, prevention",Regimen-
same,"inhibition of clinical arthritic score, inflammation, cartilage degradation, bone resorption, and pannus formation","[3]; Study SMP05-010, 10, 25, 50, 75, 100 mg/kg/d PO, prevention",Dose-dependent
same,inhibition of clinical arthritic score upon combination of the two drugs,"[3]; Study SMP05-046, 2ME2 10 or 100 mg/kg/d PO combined with MTX 0.1 or 1 mg/kg/d IP, prevention",Additive
same,pathology in the liver,"[3]; Study SMP05-046, 2ME2 PO in combination with MTX IP",No pathology
same,pathology in the liver,"[3]; Study SMP05-046, either drug alone (2ME2 10 or 100 mg/kg/d PO; MTX 0.1 or 1 mg/kg/d IP)",No pathology
same,spleen histology,"[4]; 30 mg/kg/d from day 6-14 post-immunization, no increase in giant cells or abscess formation, no lymphoid hyperplasia",Only mild splenitis
same,increase in spleen weight (splenic enlargement),[4]; 30 mg/kg/d started on day 6 post-immunization,completely inhibited
same,"splenic abscess formation, giant cells, and lymphoid hyperplasia","[4]; Dalhousie Study #1, 30, 100 mg/kg/d PO",Decreased
same,increase in spleen weight (splenic enlargement),[4]; high dose (100 mg/kg/d) started on day 6 post-immunization,completely inhibited
same,splenic enlargement,[4]; treatment initiated at day 10,markedly inhibited
same,proliferative response to PPD (DNA incorporation),"[5]; lymphocytes from rats given 30 mg/kg/d day 6-14, compared to vehicle-treated",significantly reduced
same,proliferation induced by Con A or PHA,"[5]; lymphocytes from rats given 30 mg/kg/d day 6-14, no 2ME2 added to cultures",no difference
same,"vessel density per 0.8 mm^2 (small, medium, large vessels) in synovium",[6],no significant difference
